The record followed here is PMC12409821, “Synthesis and Characterization of Co(II), Cu(II), and Ni(II) Complexes of 2,2′‐Bipyridine‐4,4′‐Dicarboxamide Ligands: Antibacterial Evaluation Against Resistant Bacteria and Enzyme Inhibition” (ChemistryOpen, 2025).

Molecules are shown by their SMILES.

Assay [1] concerns the target butyrylcholinesterase (BChE) (Homo sapiens, UniProt P06276). Description: biochemical. The settings on record: at least five concentrations. Here is the method:
(§1) In cholinesterase activity measurements, the method reported by Karagecili and coworkers was used with minor modifications.^[ [23] ^] Here, acetylchoiniodate was used as a substrate for both enzymes. Lipase enzyme activity measurement was performed according to the method reported by Bulut.^[ [24] ^] In inhibition studies, measurements were made at at least five different concentrations of the molecules synthesized. %activity values were calculated by accepting enzyme activity measurements without inhibitor as 100%. Then, molecule concentrations were plotted against Activity% values.

Assay [2] addresses acetylcholinesterase (AChE) (Homo sapiens, UniProt P22303). The assay can be described thus: biochemical. To be noted: at least five concentrations. The method, then:
as §1

Assay [3] concerns the target T1, pancreatic lipase (Homo sapiens, UniProt P16233).
T1 sequence (P16233 17-465): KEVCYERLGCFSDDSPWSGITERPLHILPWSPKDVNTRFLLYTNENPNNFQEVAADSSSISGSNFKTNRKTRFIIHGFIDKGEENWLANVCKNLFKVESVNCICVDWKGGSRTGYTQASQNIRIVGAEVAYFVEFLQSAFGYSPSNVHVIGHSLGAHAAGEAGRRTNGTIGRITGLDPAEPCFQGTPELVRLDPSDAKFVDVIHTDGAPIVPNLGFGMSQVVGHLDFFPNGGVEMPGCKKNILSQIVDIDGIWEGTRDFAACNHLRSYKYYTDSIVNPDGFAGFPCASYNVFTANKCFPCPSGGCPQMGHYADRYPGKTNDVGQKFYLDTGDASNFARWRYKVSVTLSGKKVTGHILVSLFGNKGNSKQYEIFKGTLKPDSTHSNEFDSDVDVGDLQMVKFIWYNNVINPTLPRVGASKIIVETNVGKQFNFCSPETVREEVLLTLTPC
Description: In vitro lipase inhibition assay. The class given is biochemical. Here is the method: as §1

Chain of acetylcholinesterase (AChE) (P22303 32-614, species assumed): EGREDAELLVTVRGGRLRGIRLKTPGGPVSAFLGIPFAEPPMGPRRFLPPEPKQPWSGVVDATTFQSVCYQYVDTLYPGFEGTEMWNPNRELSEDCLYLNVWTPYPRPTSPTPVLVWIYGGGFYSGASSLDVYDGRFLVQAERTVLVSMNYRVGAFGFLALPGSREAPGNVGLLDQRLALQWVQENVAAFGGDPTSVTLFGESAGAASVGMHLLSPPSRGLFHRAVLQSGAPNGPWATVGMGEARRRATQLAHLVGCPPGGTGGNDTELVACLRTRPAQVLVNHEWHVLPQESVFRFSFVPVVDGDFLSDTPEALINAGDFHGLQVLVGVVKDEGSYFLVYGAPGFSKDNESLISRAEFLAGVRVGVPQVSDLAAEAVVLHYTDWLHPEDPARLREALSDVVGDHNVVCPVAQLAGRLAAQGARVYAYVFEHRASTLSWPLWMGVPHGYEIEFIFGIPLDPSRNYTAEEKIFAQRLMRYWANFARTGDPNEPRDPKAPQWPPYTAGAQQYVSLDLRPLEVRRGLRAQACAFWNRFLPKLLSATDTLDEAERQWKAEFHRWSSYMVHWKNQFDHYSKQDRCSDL
Chain of butyrylcholinesterase (BChE) (P06276 29-602, species assumed): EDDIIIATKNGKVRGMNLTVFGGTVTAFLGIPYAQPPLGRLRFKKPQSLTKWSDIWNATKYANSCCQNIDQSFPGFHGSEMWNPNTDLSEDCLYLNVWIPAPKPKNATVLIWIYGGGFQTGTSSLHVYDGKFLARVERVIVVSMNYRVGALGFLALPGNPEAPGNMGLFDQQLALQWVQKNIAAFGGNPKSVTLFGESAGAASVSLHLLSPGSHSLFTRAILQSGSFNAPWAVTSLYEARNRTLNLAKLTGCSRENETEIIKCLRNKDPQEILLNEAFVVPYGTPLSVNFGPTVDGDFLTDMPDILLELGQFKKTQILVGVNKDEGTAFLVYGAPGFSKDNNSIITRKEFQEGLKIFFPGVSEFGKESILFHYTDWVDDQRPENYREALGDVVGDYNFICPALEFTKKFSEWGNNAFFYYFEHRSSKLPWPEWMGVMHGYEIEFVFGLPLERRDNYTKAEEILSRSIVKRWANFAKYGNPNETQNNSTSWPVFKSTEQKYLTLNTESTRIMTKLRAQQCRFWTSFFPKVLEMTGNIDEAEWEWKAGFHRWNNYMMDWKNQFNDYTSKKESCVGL

Usually IC50 stands for the point on the concentration scale where inhibition reaches its midpoint. `O=C(NCc1ccccn1)c1ccnc(-c2cc(C(=O)NCc3ccccn3)ccn2)c1` [L1, N4,N4′‐bis(pyridin‐2‐ylmethyl)‐[2,2′‐bipyridine]‐4,4′‐dicarboxamide]: the IC50 in assay [1] stood at 68.1 µM; in assay [2], 173 µM. Also, in assay [3] (no IC50 given in Table 5), the “Effect on lipase in the concentration ranges studied” value was “did not show a linear effect”.

For `O=C(NCC1CCCCN1)c1ccnc(-c2cc(C(=O)NCC3CCCCN3)ccn2)c1` (stereo not drawn) [L2, N4,N4′‐bis(piperidin‐2‐ylmethyl)‐[2,2′‐bipyridine]‐4,4′‐dicarboxamide], the figures for the IC50 in assay [1], in assay [2] and in assay [3] (at least five concentrations) were 8.83 µM, 10.2 µM and 24.1 µM, respectively.
